Assay results reported in patent publication EP0187355A1, “Process for preparing beta-lactam antibiotics” (E.R. Squibb & Sons, Inc., priority 1981, dated 1982).
Counter-ions that a name gives are not always drawn.

Assays:
Test in all cases: MIC, agar dilution
Assay type in all cases: cell-based
[1] = test system: Enterobacter cloacae, 8236; settings: Enterobacter cloacae, 8236, 18 h, K-10 agar, 10^4 CFU, 37°C
Procedure, shortened: (§1)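 Broth cultures grown 18-20 h at 37°C, diluted 1:100 in K-10 broth, applied by multipoint inoculator at 10^4 CFU onto K-10 agar holding twofold compound dilutions, 100 to 0.05 µg/ml final. MIC taken as lowest concentration inhibiting growth.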

Micrococcus luteus, 2495 = settings: Micrococcus luteus, 2495, 18 h, K-10 agar, 10^4 CFU, 37°C, read-out: M.I.C.
Procedure, shortened: as §1

[2] = test system: Streptococcus agalactiae, 9287; settings: Streptococcus agalactiae, 9287, 18 h, K-10 agar, 10^4 CFU, 37°C, read-out: M.I.C.
Procedure, shortened: as §1

Proteus mirabilis, 3855 = settings: Proteus mirabilis, 3855, 18 h, K-10 agar, 10^4 CFU, 37°C, read-out: M.I.C.
Procedure, shortened: (§2)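 MIC, the lowest compound concentration preventing visible growth, is read after plates incubate 18 h at 37°C. Plates hold K-10 agar with twofold drug dilutions spanning 100 to 0.05 µg/ml, each spot-inoculated with 10^4 CFU.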

[3] = test system: Pseudomonas aeruginosa, 8329; settings: K-10 agar, 10^4 CFU, 37°C, 18 hours, read-out: M.I.C.
Procedure, shortened: as §2

[4] = test system: Staphylococcus aureus, 2400; settings: Staphylococcus aureus, 2400; K-10 agar, 10^4 CFU, 37°C, 18 hours; read-out: M.I.C.
Procedure, shortened: as §2

[5] = test system: Streptococcus faecalis, 9011; settings: Enterococcus faecalis; Streptococcus faecalis, 9011; K-10 agar, 10^4 CFU, 37°C, 18 hours; read-out: M.I.C.
Procedure, shortened: as §2

Escherichia coli, 10857 = settings: Escherichia coli, 10857, 18 h, K-10 agar, 10^4 CFU, 37°C
Procedure, shortened: as §2

[6] = test system: Pseudomonas aeruginosa, 9545; settings: Pseudomonas aeruginosa, 9545, 18 h, K-10 agar, 10^4 CFU, 37°C, read-out: M.I.C.
Procedure, shortened: as §2

Salmonella typhosa, 1195 = settings: Salmonella enterica, TYPHOSA, 18 h, K-10 agar, 10^4 CFU, 37°C
Procedure, shortened: as §2

[7] = test system: Enterobacter aerogenes, 10078; settings: Klebsiella aerogenes, 10078, 18 h, Enterobacter aerogenes, 10078; K-10 agar, 10^4 CFU, 37°C, 18 hours; read-out: M.I.C.
Procedure, shortened: as §2

Escherichia coli, 10896 = settings: K-10 agar, 10^4 CFU, 37°C, 18 hours
Procedure, shortened: as §2

Proteus vulgaris, 9416 = settings: K-10 agar, 10^4 CFU, 37°C, 18 hours, read-out: M.I.C.
Procedure, shortened: as §2

Shigella sonnei, 8449 = settings: Shigella sonnei, 8449, 18 h, K-10 agar, 10^4 CFU, 37°C
Procedure, shortened: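 Test strains are first grown in broth at 37°C for 18–20 hours, then diluted 1:100. Compounds are serially halved and mixed into K-10 agar at final levels from 100 to 0.05 µg/ml. Each plate receives about 10^4 CFU per organism, and growth is scored after 18 hours at 37°C.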

[8] = test system: Staphylococcus aureus, 1276; settings: Staphylococcus aureus, 1276; K-10 agar, 10^4 CFU, 37°C, 18 hours; read-out: M.I.C.
Procedure, shortened: as §2

[9] = test system: Serratia marcescens, 9783; settings: Serratia marcescens, 9783, 18 h, K-10 agar, 10^4 CFU, 37°C, read-out: M.I.C.
Procedure, shortened: as §2

[10] = test system: Acinetobacter calcoaceticus, 8333; settings: Acinetobacter calcoaceticus, 8333, 18 h, K-10 agar, 10^4 CFU, 37°C, read-out: M.I.C.
Procedure, shortened: as §2

[11] = test system: Staphylococcus aureus, 10165; settings: Staphylococcus aureus, 10165; K-10 agar, 10^4 CFU, 37°C, 18 hours; read-out: M.I.C.
Procedure, shortened: as §2

[12] = test system: Klebsiella pneumoniae, 9527; settings: Klebsiella pneumoniae, 9527, 18 h, K-10 agar, 10^4 CFU, 37°C, read-out: M.I.C.
Procedure, shortened: as §2

Proteus rettgeri, 8479 = settings: Providencia rettgeri, K-10 agar, 10^4 CFU, 37°C, 18 hours, read-out: M.I.C.
Procedure, shortened: as §2

Escherichia coli, 10909 = settings: K-10 agar, 10^4 CFU, 37°C, 18 hours
Procedure, shortened: as §2

[13] = test system: Staphylococcus aureus, 2399; settings: Staphylococcus aureus, 2399, 18 h, Staphylococcus aureus, 2399; K-10 agar, 10^4 CFU, 37°C, 18 hours; read-out: M.I.C.
Procedure, shortened: as §2

[14] = test system: Citrobacter freundii, 9518; settings: K-10 agar, 10^4 CFU, 37°C, 18 hours, read-out: M.I.C.
Procedure, shortened: as §2

[15] = test system: Klebsiella aerogenes, 10440; settings: K-10 agar, 10^4 CFU, 37°C, 18 hours, read-out: M.I.C.
Procedure, shortened: as §2

Escherichia coli, 8294 = settings: Escherichia coli, 8294, 18 h, K-10 agar, 10^4 CFU, 37°C
Procedure, shortened: as §2

| Compound | MIC [1] | MIC (Micrococcus luteus, 2495) | MIC [2] | MIC (Proteus mirabilis, 3855) | MIC [3] | MIC [4] | MIC [5] | MIC (Escherichia coli, 10857) | MIC [6] | MIC (Salmonella typhosa, 1195) | MIC [7] | MIC (Escherichia coli, 10896) | MIC (Proteus vulgaris, 9416) | MIC (Shigella sonnei, 8449) | MIC [8] | MIC [9] | MIC [10] | MIC [11] | MIC [12] | MIC (Proteus rettgeri, 8479) | further results |
| --- | --- | --- | --- | --- | --- | --- | --- | --- | --- | --- | --- | --- | --- | --- | --- | --- | --- | --- | --- | --- | --- |
| C[C@H]1[C@H](NC(=O)/C(=N\OC(C)(C)C(=O)OCc2ccc([N+](=O)[O-])cc2)c2csc(N)n2)C(=O)N1S(=O)(=O)O [Example 15, [3S-[3α(Z),4β]]-3-[[(2-Amino-4-thiazolyl)[[1,1-dimethyl-2-[(4-nitrophenyl)methoxy]-2-oxoethoxy]-imino]acetyl]amino]-4-methyl-2-oxo-1-azetidinesulfonic acid, potassium salt] | 25 µg/mL | 1.6 µg/mL | 0.8 µg/mL | 6.3 µg/mL | > 100 µg/mL | 12.5 µg/mL | > 100 µg/mL | 0.4 µg/mL | 12.5 µg/mL | 6.3 µg/mL | 100 µg/mL | 6.3 µg/mL | 1.6 µg/mL | 25 µg/mL | 6.3 µg/mL | 50 µg/mL | > 100 µg/mL | 50 µg/mL | 12.5 µg/mL | 1.6 µg/mL | MIC (Escherichia coli, 10909): 6.3 µg/mL; MIC [13]: 6.3 µg/mL; MIC [14]: 25 µg/mL; MIC [15]: > 100 µg/mL; MIC (Escherichia coli, 8294): 50 µg/mL |
| C[C@H]1[C@H](NC(=O)C(=O)c2csc(N)n2)C(=O)N1S(=O)(=O)O [Example 27, (3S-trans)-3-[[(2-Amino-4-thiazolyl)oxoacetyl]-amino]-4-methyl-2-oxo-1-azetidinesulfonic acid, potassium salt] | 3.1 µg/mL | 100 µg/mL | 12.5 µg/mL | 3.1 µg/mL | > 100 µg/mL | > 100 µg/mL | > 100 µg/mL | 3.1 µg/mL | 50 µg/mL | 3.1 µg/mL | 6.3 µg/mL | 3.1 µg/mL | 6.3 µg/mL | 3.1 µg/mL | > 100 µg/mL | 3.1 µg/mL | > 100 µg/mL | > 100 µg/mL | 6.3 µg/mL | 0.4 µg/mL | MIC (Escherichia coli, 10909): 1.6 µg/mL; MIC [13]: > 100 µg/mL; MIC [14]: 3.1 µg/mL; MIC [15]: 6.3 µg/mL; MIC (Escherichia coli, 8294): 6.3 µg/mL |
| COC1(NC(=O)Cc2ccccc2)C(=O)N(S(=O)(=O)O)C1C (stereo not drawn) [Example 29, (3S-trans)-3-Methoxy-4-methyl-2-oxo-3-[(phenylacetyl)-amino]-1-azetidinesulfonic acid, potassium salt] | > 100 µg/mL | > 100 µg/mL | > 100 µg/mL | > 100 µg/mL | > 100 µg/mL | > 100 µg/mL | > 100 µg/mL | > 100 µg/mL | > 100 µg/mL | > 100 µg/mL | > 100 µg/mL | 100 µg/mL | > 100 µg/mL | > 100 µg/mL | > 100 µg/mL | > 100 µg/mL | > 100 µg/mL | > 100 µg/mL | 100 µg/mL | > 100 µg/mL | MIC (Escherichia coli, 10909): 100 µg/mL; MIC [13]: > 100 µg/mL; MIC [14]: > 100 µg/mL; MIC [15]: > 100 µg/mL; MIC (Escherichia coli, 8294): > 100 µg/mL |
